Reference: PubChem BioAssay AID1745844 (Carcinogenic Potency Database (CPDB), 2022)
Calls of active or inactive are those of the source. The rule behind the calls is not given here.

Tested on: rodent lifetime carcinogenesis bioassay, tumor incidence TD50
Assay: chronic cancer bioassays in animals – CPDB, compiled studies (AID 1745844)
[1] = mouse, strain B6AKF1, females, oral dosing, site: any site (literature study), lesion: several types, types named in the paper, dosed 76 weeks, study length 76 weeks
[2] = mouse, strain B6AKF1, females, oral dosing, site: liver, lesion: hepatoma, dosed 76 weeks, study length 76 weeks
[3] = mouse, strain B6AKF1, females, oral dosing, site: lung, lesion: adenoma, dosed 76 weeks, study length 76 weeks
[4] = mouse, strain B6AKF1, males, oral dosing, site: any site (literature study), lesion: several types, types named in the paper, dosed 76 weeks, study length 76 weeks
[5] = mouse, strain B6AKF1, males, oral dosing, site: liver, lesion: hepatoma, dosed 76 weeks, study length 76 weeks
[6] = mouse, strain B6AKF1, males, oral dosing, site: lung, lesion: adenoma, dosed 76 weeks, study length 76 weeks
[7] = mouse, strain B6C3F1, females, oral dosing, site: any site (literature study), lesion: several types, types named in the paper, dosed 76 weeks, study length 76 weeks
[8] = mouse, strain B6C3F1, females, oral dosing, site: liver, lesion: hepatoma, dosed 76 weeks, study length 76 weeks
[9] = mouse, strain B6C3F1, males, oral dosing, site: any site (literature study), lesion: several types, types named in the paper, dosed 76 weeks, study length 76 weeks
[10] = mouse, strain B6C3F1, males, oral dosing, site: liver, lesion: hepatoma, dosed 76 weeks, study length 76 weeks
[11] = mouse, strain B6C3F1, males, oral dosing, site: lung, lesion: adenoma, dosed 76 weeks, study length 76 weeks
[12] = rat, strain Fischer 344, females, by gavage, site: any site (literature study), lesion: several types, types named in the paper, dosed 103 weeks, study length 104 weeks
[13] = rat, strain Fischer 344, females, by gavage, site: liver, lesion: hepatocellular adenoma + hepatocellular carcinoma + neoplastic nodule, dosed 103 weeks, study length 104 weeks
[14] = rat, strain Fischer 344, males, by gavage, site: any site (literature study), lesion: several types, types named in the paper, dosed 103 weeks, study length 104 weeks
[15] = rat, strain Fischer 344, males, by gavage, site: liver, lesion: hepatocellular adenoma + hepatocellular carcinoma + neoplastic nodule, dosed 103 weeks, study length 104 weeks

CCN(Cc1cccc(S(=O)(=O)O)c1)c1ccc(C(=C2C=CC(=[N+](CC)Cc3cccc(S(=O)(=O)O)c3)C=C2)c2ccc(O)cc2S(=O)(=O)[O-])cc1
carcinogen call (mouse, strain C3HeB/FeJ, females, in feed, site: any site (literature study), lesion: malignant tumor, dosed 104 weeks, study length 104 weeks): negative (inactive)
carcinogen call (mouse, strain C3HeB/FeJ, females, in feed, site: any site (literature study), lesion: several types, types named in the paper, dosed 104 weeks, study length 104 weeks): negative (inactive)
carcinogen call (mouse, strain C3HeB/FeJ, females, in feed, site: liver, lesion: hepatocellular adenoma, dosed 104 weeks, study length 104 weeks): negative (inactive)
TD50 (mouse, strain C3HeB/FeJ, females, in feed, site: lung, lesion: adenoma, dosed 104 weeks, study length 104 weeks): 133000 mg/kg/day (inactive)
carcinogen call (mouse, strain C3HeB/FeJ, males, in feed, site: any site (literature study), lesion: malignant tumor, dosed 104 weeks, study length 104 weeks): negative (inactive)
TD50 (mouse, strain C3HeB/FeJ, males, in feed, site: any site (literature study), lesion: several types, types named in the paper, dosed 104 weeks, study length 104 weeks): 18100 mg/kg/day (inactive)
carcinogen call (mouse, strain C3HeB/FeJ, males, in feed, site: lung, lesion: adenoma, dosed 104 weeks, study length 104 weeks): negative (inactive)
TD50 (rat, strain Osborne-Mendel, females, in feed, site: any site (literature study), lesion: malignant tumor, dosed 104 weeks, study length 104 weeks): 46700 mg/kg/day (inactive)
TD50 (rat, strain Osborne-Mendel, females, in feed, site: any site (literature study), lesion: several types, types named in the paper, dosed 104 weeks, study length 104 weeks): 18500 mg/kg/day (inactive)
carcinogen call (rat, strain Osborne-Mendel, females, in feed, site: liver, lesion: one or several types, types not named, dosed 104 weeks, study length 104 weeks): negative (inactive)
carcinogen call (rat, strain Osborne-Mendel, females, in feed, site: mammary gland, lesion: fibroadenoma, dosed 104 weeks, study length 104 weeks): negative (inactive)
carcinogen call (rat, strain Osborne-Mendel, males, in feed, site: any site (literature study), lesion: malignant tumor, dosed 104 weeks, study length 104 weeks): negative (inactive)
carcinogen call (rat, strain Osborne-Mendel, males, in feed, site: any site (literature study), lesion: several types, types named in the paper, dosed 104 weeks, study length 104 weeks): negative (inactive)
carcinogen call (rat, strain Osborne-Mendel, males, in feed, site: liver, lesion: hepatocellular adenoma, dosed 104 weeks, study length 104 weeks): negative (inactive)

CCCCN(CC)C(=O)SCCC
TD50 [1]: 219 mg/kg/day (inactive)
carcinogen call [2]: negative (inactive)
TD50 [3]: 113 mg/kg/day (inactive)
carcinogen call [4]: negative (inactive)
carcinogen call [5]: negative (inactive)
carcinogen call [6]: negative (inactive)
TD50 [7]: 251 mg/kg/day (inactive)
carcinogen call [8]: negative (inactive)
TD50 (mouse, strain B6C3F1, females, oral dosing, site: lung, lesion: adenoma, dosed 76 weeks, study length 76 weeks): 267 mg/kg/day (inactive)
carcinogen call [9]: negative (inactive)
carcinogen call [10]: negative (inactive)
carcinogen call [11]: negative (inactive)

CCCCCCc1ccc(O)cc1O
carcinogen call (mouse, strain B6C3F1, females, by gavage, site: any site (literature study), lesion: several types, types named in the paper, dosed 102 weeks, study length 104 weeks): negative (inactive)
TD50 (mouse, strain B6C3F1, males, by gavage, site: Harderian gland, lesion: adenoma, NOS + carcinoma, NOS, dosed 102 weeks, study length 104 weeks): 368 mg/kg/day
TD50 (mouse, strain B6C3F1, males, by gavage, site: adrenal medulla, lesion: pheochromocytoma, dosed 102 weeks, study length 104 weeks): 519 mg/kg/day
carcinogen call [12]: negative (inactive)
TD50 [13]: 128000 mg/kg/day
TD50 [14]: 615 mg/kg/day (inactive)
TD50 [15]: 1530 mg/kg/day

CCCCOC(=O)COc1ccc(Cl)cc1Cl
carcinogen call [1]: negative (inactive)
carcinogen call [2]: negative (inactive)
carcinogen call [3]: negative (inactive)
carcinogen call [4]: negative (inactive)
carcinogen call [5]: negative (inactive)
carcinogen call [6]: negative (inactive)
TD50 [7]: 29.7 mg/kg/day (inactive)
carcinogen call [8]: negative (inactive)
carcinogen call (mouse, strain B6C3F1, females, oral dosing, site: lung, lesion: several types, types named in the paper, dosed 76 weeks, study length 76 weeks): negative (inactive)
TD50 [9]: 38.1 mg/kg/day (inactive)
TD50 [10]: 122 mg/kg/day (inactive)
TD50 [11]: 59 mg/kg/day (inactive)

c1ccoc1
TD50 (mouse, strain B6C3F1, females, by gavage, site: adrenal medulla + liver, lesion: pheochromocytoma, benign + hepatocellular adenoma + hepatocellular carcinoma, dosed 104 weeks, study length 105 weeks): 2.26 mg/kg/day
TD50 (mouse, strain B6C3F1, females, by gavage, site: adrenal medulla, lesion: pheochromocytoma, benign, dosed 104 weeks, study length 105 weeks): 36 mg/kg/day
TD50 (mouse, strain B6C3F1, females, by gavage, site: any site (literature study), lesion: several types, types named in the paper, dosed 104 weeks, study length 105 weeks): 2.81 mg/kg/day
TD50 (mouse, strain B6C3F1, females, by gavage, site: forestomach, lesion: squamous-cell papilloma, dosed 104 weeks, study length 105 weeks): 23.8 mg/kg/day
TD50 (mouse, strain B6C3F1, females, by gavage, site: liver, lesion: carcinoma + hepatocellular carcinoma, dosed 104 weeks, study length 105 weeks): 6.85 mg/kg/day
TD50 (mouse, strain B6C3F1, females, by gavage, site: liver, lesion: hepatocellular adenoma + hepatocellular carcinoma + neoplastic nodule, dosed 104 weeks, study length 105 weeks): 2.19 mg/kg/day
TD50 (mouse, strain B6C3F1, females, by gavage, site: liver, lesion: hepatocellular adenoma + hepatocellular carcinoma, dosed 104 weeks, study length 105 weeks): 2.19 mg/kg/day
TD50 (mouse, strain B6C3F1, females, by gavage, site: liver, lesion: hepatocellular adenoma, dosed 104 weeks, study length 105 weeks): 2.26 mg/kg/day
TD50 (mouse, strain B6C3F1, females, by gavage, site: lung, lesion: alveolar/bronchiolar adenoma + alveolar/bronchiolar carcinoma, dosed 104 weeks, study length 105 weeks): 38.5 mg/kg/day
TD50 (mouse, strain B6C3F1, males, by gavage, site: adrenal medulla + liver, lesion: pheochromocytoma, benign + hepatocellular adenoma + hepatocellular carcinoma, dosed 104 weeks, study length 105 weeks): 3.6 mg/kg/day
TD50 (mouse, strain B6C3F1, males, by gavage, site: adrenal medulla, lesion: pheochromocytoma, benign, dosed 104 weeks, study length 105 weeks): 20.1 mg/kg/day
TD50 (mouse, strain B6C3F1, males, by gavage, site: any site (literature study), lesion: several types, types named in the paper, dosed 104 weeks, study length 105 weeks): 5.43 mg/kg/day
TD50 (mouse, strain B6C3F1, males, by gavage, site: forestomach, lesion: squamous-cell papilloma, dosed 104 weeks, study length 105 weeks): 64.6 mg/kg/day
TD50 (mouse, strain B6C3F1, males, by gavage, site: liver, lesion: hepatocellular adenoma + hepatocellular carcinoma + neoplastic nodule, dosed 104 weeks, study length 105 weeks): 3.6 mg/kg/day
TD50 (mouse, strain B6C3F1, males, by gavage, site: liver, lesion: hepatocellular adenoma + hepatocellular carcinoma, dosed 104 weeks, study length 105 weeks): 3.6 mg/kg/day
TD50 (mouse, strain B6C3F1, males, by gavage, site: liver, lesion: hepatocellular adenoma, dosed 104 weeks, study length 105 weeks): 4.02 mg/kg/day
TD50 (mouse, strain B6C3F1, males, by gavage, site: liver, lesion: hepatocellular carcinoma, dosed 104 weeks, study length 105 weeks): 5.13 mg/kg/day
TD50 (mouse, strain B6C3F1, males, by gavage, site: lung, lesion: alveolar/bronchiolar adenoma + alveolar/bronchiolar carcinoma, dosed 104 weeks, study length 105 weeks): 21.5 mg/kg/day
TD50 (mouse, strain B6C3F1, males, by gavage, site: lung, lesion: alveolar/bronchiolar adenoma, dosed 104 weeks, study length 105 weeks): 18.2 mg/kg/day
TD50 (mouse, strain B6C3F1, males, by gavage, site: multiple organs, lesion: malignant lymphoma, histiocytic type + malignant lymphoma, mixed type, dosed 104 weeks, study length 105 weeks): 11 mg/kg/day
TD50 [12]: 2.83 mg/kg/day
TD50 (rat, strain Fischer 344, females, by gavage, site: liver + multiple organs, lesion: cholangiocarcinoma + hepatocellular adenoma + hepatocellular carcinoma + mononuclear-cell leukemia, dosed 103 weeks, study length 104 weeks): 0.543 mg/kg/day
TD50 (rat, strain Fischer 344, females, by gavage, site: liver, lesion: cholangiocarcinoma, dosed 103 weeks, study length 104 weeks): 0.395 mg/kg/day
TD50 [13]: 11.2 mg/kg/day
TD50 (rat, strain Fischer 344, females, by gavage, site: liver, lesion: hepatocellular adenoma + hepatocellular carcinoma, dosed 103 weeks, study length 104 weeks): 11.2 mg/kg/day
TD50 (rat, strain Fischer 344, females, by gavage, site: liver, lesion: hepatocellular adenoma, dosed 103 weeks, study length 104 weeks): 11.8 mg/kg/day
TD50 (rat, strain Fischer 344, females, by gavage, site: multiple organs, lesion: mononuclear-cell leukemia, dosed 103 weeks, study length 104 weeks): 5.84 mg/kg/day
TD50 (rat, strain Fischer 344, females, by gavage, site: urinary bladder, lesion: transitional-cell papilloma, dosed 103 weeks, study length 104 weeks): 50.7 mg/kg/day
TD50 (rat, strain Fischer 344, males, by gavage, site: adrenal medulla, lesion: pheochromocytoma, benign, dosed 103 weeks, study length 104 weeks): 12.7 mg/kg/day
TD50 [14]: 1.96 mg/kg/day
TD50 (rat, strain Fischer 344, males, by gavage, site: liver + multiple organs, lesion: cholangiocarcinoma + hepatocellular adenoma + hepatocellular carcinoma + mononuclear-cell leukemia, dosed 103 weeks, study length 104 weeks): 0.529 mg/kg/day
TD50 (rat, strain Fischer 344, males, by gavage, site: liver, lesion: cholangiocarcinoma, dosed 103 weeks, study length 104 weeks): 0.398 mg/kg/day
TD50 [15]: 2.31 mg/kg/day
TD50 (rat, strain Fischer 344, males, by gavage, site: liver, lesion: hepatocellular adenoma + hepatocellular carcinoma, dosed 103 weeks, study length 104 weeks): 2.31 mg/kg/day
TD50 (rat, strain Fischer 344, males, by gavage, site: liver, lesion: hepatocellular adenoma, dosed 103 weeks, study length 104 weeks): 3.1 mg/kg/day
TD50 (rat, strain Fischer 344, males, by gavage, site: liver, lesion: hepatocellular carcinoma, dosed 103 weeks, study length 104 weeks): 6.18 mg/kg/day
TD50 (rat, strain Fischer 344, males, by gavage, site: multiple organs, lesion: mononuclear-cell leukemia, dosed 103 weeks, study length 104 weeks): 4.64 mg/kg/day
TD50 (rat, strain Fischer 344, males, by gavage, site: preputial gland, lesion: adenoma + adenoma, bilateral, dosed 103 weeks, study length 104 weeks): 21.5 mg/kg/day
TD50 (rat, strain Fischer 344, males, by gavage, site: skin, lesion: keratoacanthoma, dosed 103 weeks, study length 104 weeks): 16.4 mg/kg/day
TD50 (rat, strain Fischer 344, males, by gavage, site: subcutaneous tissue, lesion: fibroma, dosed 103 weeks, study length 104 weeks): 18.1 mg/kg/day
TD50 (rat, strain Fischer 344, males, by gavage, site: testis, lesion: interstitial-cell adenoma, dosed 103 weeks, study length 104 weeks): 3.14 mg/kg/day
